# Data reported in ChEMBL document CHEMBL5543097, “Synthesis and structure-activity relationships of novel 14-membered 2-fluoro ketolides with structural modification at the C11 position” (Eur J Med Chem, 2024).
# Key:
# Streptococcus pneumoniae [1] = assay: Potency index, ratio of telithromycin MIC to test compound MIC for antibacterial activity against Streptococcus pneumoniae SPN19-13 assessed as inhibition of visible bacterial growth incubated for 18 hrs by broth microdilution method; type: functional
# Streptococcus pneumoniae [2] = assay: Potency index, ratio of telithromycin MIC to test compound MIC for antibacterial activity against Streptococcus pneumoniae SPN19-8 assessed as inhibition of visible bacterial growth incubated for 18 hrs by broth microdilution method; type: functional
# Streptococcus pyogenes = assay: Antibacterial activity against erythromycin-resistant Streptococcus pyogenes ATCC 19615 assessed as inhibition of visible bacterial growth incubated for 18 hrs by broth microdilution method; type: functional
# Streptococcus agalactiae [3] = assay: Antibacterial activity against erythromycin-resistant Streptococcus agalactiae 19-9 assessed as inhibition of visible bacterial growth incubated for 18 hrs by broth microdilution method; type: functional
# Streptococcus agalactiae [4] = assay: Antibacterial activity against erythromycin-resistant Streptococcus agalactiae 19-8 assessed as inhibition of visible bacterial growth incubated for 18 hrs by broth microdilution method; type: functional
# Streptococcus pneumoniae [5] = assay: Antibacterial activity against erythromycin-resistant Streptococcus pneumoniae SPN19-14 assessed as inhibition of visible bacterial growth incubated for 18 hrs by broth microdilution method; type: functional
# Streptococcus pneumoniae [6] = assay: Antibacterial activity against erythromycin-resistant Streptococcus pneumoniae SPN19-13 assessed as inhibition of visible bacterial growth incubated for 18 hrs by broth microdilution method; type: functional
# Streptococcus pneumoniae [7] = assay: Antibacterial activity against erythromycin-resistant Streptococcus pneumoniae SPN19-8 assessed as inhibition of visible bacterial growth incubated for 18 hrs by broth microdilution method; type: functional
# [8] = system: Staphylococcus epidermidis; assay: Antibacterial activity against erythromycin-resistant Staphylococcus epidermidis 19-11 assessed as inhibition of visible bacterial growth incubated for 18 hrs by broth microdilution method; type: functional
# [9] = system: Staphylococcus epidermidis; assay: Antibacterial activity against erythromycin-resistant Staphylococcus epidermidis 19-9 assessed as inhibition of visible bacterial growth incubated for 18 hrs by broth microdilution method; type: functional
# [10] = system: Staphylococcus epidermidis; assay: Antibacterial activity against erythromycin-resistant Staphylococcus epidermidis 19-8 assessed as inhibition of visible bacterial growth incubated for 18 hrs by broth microdilution method; type: functional
# [11] = system: Staphylococcus epidermidis; assay: Antibacterial activity against erythromycin-resistant Staphylococcus epidermidis 19-6 assessed as inhibition of visible bacterial growth incubated for 18 hrs by broth microdilution method; type: functional
# [12] = system: Staphylococcus epidermidis; assay: Antibacterial activity against erythromycin-resistant Staphylococcus epidermidis 19-4 assessed as inhibition of visible bacterial growth incubated for 18 hrs by broth microdilution method; type: functional
# [13] = system: Staphylococcus epidermidis; assay: Antibacterial activity against erythromycin-resistant Staphylococcus epidermidis 19-5 assessed as inhibition of visible bacterial growth incubated for 18 hrs by broth microdilution method; type: functional
# Streptococcus pneumoniae [14] = assay: Potency index, ratio of telithromycin MIC to test compound MIC for antibacterial activity against Streptococcus pneumoniae SPN19-14 assessed as inhibition of visible bacterial growth incubated for 18 hrs by broth microdilution method; type: functional
# Moraxella catarrhalis [15] = assay: Antibacterial activity against Moraxella catarrhalis BCA 19-5 assessed as inhibition of bacterial growth incubated for 24 hrs by CLSI based broth microdilution method; type: functional; conditions: Moraxella catarrhalis, BCA 19-5, 24 h, read-out: MIC
# Moraxella catarrhalis [16] = assay: Antibacterial activity against Moraxella catarrhalis BCA 19-6 assessed as inhibition of bacterial growth incubated for 24 hrs by CLSI based broth microdilution method; type: functional
# Haemophilus influenzae [17] = assay: Antibacterial activity against Haemophilus influenzae HIN 19-15 assessed as inhibition of bacterial growth incubated for 20 to 24 hrs by CLSI based broth microdilution method; type: functional; conditions: time 20-24 hrs
# Haemophilus influenzae [18] = assay: Antibacterial activity against Haemophilus influenzae HIN 20-18 assessed as inhibition of bacterial growth incubated for 20 to 24 hrs by CLSI based broth microdilution method; type: functional; conditions: time 20-24 hrs
# [19] = Cytotoxicity against mouse AML12 cells assessed as reduction in cell viability incubated for 48 hrs by MTT assay; type: toxicity, cell-based
# [20] = system: Staphylococcus epidermidis; assay: Potency index, ratio of telithromycin MIC to test compound MIC for antibacterial activity against erythromycin-resistant Staphylococcus epidermidis 19-11 assessed as inhibition of visible bacterial growth incubated for 18 hrs by broth microdilution method; type: functional
# [21] = system: Staphylococcus epidermidis; assay: Potency index, ratio of telithromycin MIC to test compound MIC for antibacterial activity against erythromycin-resistant Staphylococcus epidermidis 19-9 assessed as inhibition of visible bacterial growth incubated for 18 hrs by broth microdilution method; type: functional
# [22] = system: Staphylococcus epidermidis; assay: Potency index, ratio of telithromycin MIC to test compound MIC for antibacterial activity against erythromycin-resistant Staphylococcus epidermidis 19-8 assessed as inhibition of visible bacterial growth incubated for 18 hrs by broth microdilution method; type: functional
# [23] = system: Staphylococcus epidermidis; assay: Potency index, ratio of telithromycin MIC to test compound MIC for antibacterial activity against erythromycin-resistant Staphylococcus epidermidis 19-6 assessed as inhibition of visible bacterial growth incubated for 18 hrs by broth microdilution method; type: functional
# [24] = system: Staphylococcus epidermidis; assay: Potency index, ratio of telithromycin MIC to test compound MIC for antibacterial activity against erythromycin-resistant Staphylococcus epidermidis 19-5 assessed as inhibition of visible bacterial growth incubated for 18 hrs by broth microdilution method; type: functional
# [25] = system: Staphylococcus epidermidis; assay: Potency index, ratio of telithromycin MIC to test compound MIC for antibacterial activity against erythromycin-resistant Staphylococcus epidermidis 19-4 assessed as inhibition of visible bacterial growth incubated for 18 hrs by broth microdilution method; type: functional
# Moraxella catarrhalis [26] = assay: Antibacterial activity against Moraxella catarrhalis BCA 19-31 assessed as inhibition of bacterial growth incubated for 24 hrs by CLSI based broth microdilution method; type: functional; conditions: BCA 19-31, 24 h
# Haemophilus influenzae [27] = assay: Antibacterial activity against Haemophilus influenzae HIN 19-18 assessed as inhibition of bacterial growth incubated for 20 to 24 hrs by CLSI based broth microdilution method; type: functional; conditions: HIN 19-18, time 20-24 hrs
# [28] = Metabolic stability in human liver microsome assessed as parent compound remaining in absence of NADPH measured at 60 mins by LC-MS/MS analysis; type: ADME; conditions: liver microsomes, read-out: Stability
# [29] = Metabolic stability in human liver microsome assessed as parent compound remaining in presence of NADPH measured at 60 mins by LC-MS/MS analysis; type: ADME; conditions: liver microsomes, read-out: Stability
# [30] = Metabolic stability in human liver microsome assessed as intrinsic clearance measured at 60 mins by LC-MS/MS analysis; type: ADME; conditions: liver microsomes, read-out: CLH
# [31] = Metabolic stability in human liver microsome assessed as half life measured at 60 mins by LC-MS/MS analysis; type: ADME; conditions: liver microsomes
# [32] = Moraxella catarrhalis, BCA 19-6, 24 h, read-out: MIC
Compound,Ratio (Streptococcus pneumoniae [1]),Ratio (Streptococcus pneumoniae [2]),MIC (Streptococcus pyogenes) [µg/mL],MIC (Streptococcus agalactiae [3]) [µg/mL],MIC (Streptococcus agalactiae [4]) [µg/mL],MIC (Streptococcus pneumoniae [5]) [µg/mL],MIC (Streptococcus pneumoniae [6]) [µg/mL],MIC (Streptococcus pneumoniae [7]) [µg/mL],MIC [8] [µg/mL],MIC [9] [µg/mL],MIC [10] [µg/mL],MIC [11] [µg/mL],MIC [12] [µg/mL],MIC [13] [µg/mL],MIC (Moraxella catarrhalis [15]) [µg/mL],MIC (Moraxella catarrhalis [16]; [32]) [µg/mL],MIC (Haemophilus influenzae [17]) [µg/mL],CC50 at 48 h [19] [µM],MIC (Moraxella catarrhalis [26]) [µg/mL],MIC (Haemophilus influenzae [27]) [µg/mL],also measured
CC[C@H]1OC(=O)[C@@](C)(F)C(=O)[C@H](C)[C@@H](O[C@@H]2O[C@H](C)C[C@H](N(C)C)[C@H]2O)[C@](C)(OC)C[C@@H](C)C(=O)[C@H](C)[C@H]2N(CCCOC(=O)Nc3ccc4c(c3)OCO4)C(=O)O[C@]12C,<4,<4,< 0.03,0.125,< 0.03,< 0.03,< 0.03,0.03,< 0.03,0.125,< 0.03,0.06,0.06,< 0.03,< 0.03,< 0.03,4,85.6,,,Ratio (Streptococcus pneumoniae [14]): <4; MIC (Moraxella catarrhalis [16]; 24 h): 0.06 µg/mL; MIC (Haemophilus influenzae [18]): 8 µg/mL
CC[C@H]1OC(=O)[C@@](C)(F)C(=O)[C@H](C)[C@@H](O[C@@H]2O[C@H](C)C[C@H](N(C)C)[C@H]2O)[C@](C)(OC)C[C@@H](C)C(=O)[C@H](C)[C@H]2N(CCCOC(=O)Nc3cccc(SC)c3)C(=O)O[C@]12C,,,< 0.03,0.125,< 0.03,< 0.03,< 0.03,< 0.03,0.03,< 0.03,< 0.03,0.03,< 0.03,0.03,< 0.03,< 0.03,2,34.4,< 0.03,1,Ratio [20]: 4; Ratio [21]: 4; Ratio [22]: 4; Ratio [23]: 4; Ratio [24]: 4; Ratio [25]: 4
CC[C@H]1OC(=O)[C@@](C)(F)C(=O)[C@H](C)[C@@H](O[C@@H]2O[C@H](C)C[C@H](N(C)C)[C@H]2O)[C@](C)(OC)C[C@@H](C)C(=O)[C@H](C)[C@H]2N(CCCOC(=O)Nc3cccc(C)c3)C(=O)O[C@]12C,,,< 0.03,0.06,< 0.03,< 0.03,< 0.03,0.125,< 0.03,0.06,< 0.03,0.03,< 0.03,< 0.03,< 0.03,< 0.03,8,76.8,< 0.03,8,remaining at 1 h [28]: 97.5%; remaining at 1 h [29]: 1.2%; microsomal CLint [30]: 266 µL/min/mg; half-life [31]: 5.2 min
CC[C@H]1OC(=O)[C@@](C)(F)C(=O)[C@H](C)[C@@H](O[C@@H]2O[C@H](C)C[C@H](N(C)C)[C@H]2O)[C@](C)(OC)C[C@@H](C)C(=O)[C@H](C)[C@H]2N(CCCOC(=O)Nc3ccccc3C)C(=O)O[C@]12C,,,< 0.03,0.5,,0.125,0.125,0.125,< 0.03,0.25,0.06,0.125,0.06,< 0.03,0.125,0.125,4,> 100,0.05,2,MIC (Haemophilus influenzae [18]): 16 µg/mL; remaining at 1 h [28]: 101%; remaining at 1 h [29]: 73.3%; microsomal CLint [30]: 4 µL/min/mg; half-life [31]: 176 min
CC[C@H]1OC(=O)[C@@](C)(F)C(=O)[C@H](C)[C@@H](O[C@@H]2O[C@H](C)C[C@H](N(C)C)[C@H]2O)[C@](C)(OC)C[C@@H](C)C(=O)[C@H](C)[C@H]2N(CCCOC(=O)Nc3ccc4sccc4c3)C(=O)O[C@]12C,<4,<4,< 0.03,0.25,,0.03,< 0.03,0.06,< 0.03,1,0.06,0.06,0.03,< 0.03,,,,11.6,,,Ratio [20]: 4; Ratio [21]: 4; Ratio [22]: 4; Ratio [23]: 4; Ratio [24]: 4; Ratio [25]: 4; Ratio (Streptococcus pneumoniae [14]): <4
CC[C@H]1OC(=O)[C@@](C)(F)C(=O)[C@H](C)[C@@H](O[C@@H]2O[C@H](C)C[C@H](N(C)C)[C@H]2O)[C@](C)(OC)C[C@@H](C)C(=O)[C@H](C)[C@H]2N(CCCOC(=O)Nc3ccc(F)cc3)C(=O)O[C@]12C,<4,<4,< 0.03,0.25,< 0.03,< 0.03,< 0.03,< 0.03,< 0.03,0.06,< 0.03,< 0.03,< 0.03,< 0.03,0.03,0.03,4,97.9,0.03,2,Ratio [20]: 4; Ratio [21]: 4; Ratio [22]: 4; Ratio [23]: 4; Ratio [24]: 4; Ratio [25]: 4; Ratio (Streptococcus pneumoniae [14]): <4; remaining at 1 h [28]: 95%; remaining at 1 h [29]: 0.4%; microsomal CLint [30]: 183 µL/min/mg; half-life [31]: 3.8 min
CC[C@H]1OC(=O)[C@@](C)(F)C(=O)[C@H](C)[C@@H](O[C@@H]2O[C@H](C)C[C@H](N(C)C)[C@H]2O)[C@](C)(OC)C[C@@H](C)C(=O)[C@H](C)[C@H]2N(CCCOC(=O)Nc3c(C)noc3C)C(=O)O[C@]12C,,,< 0.03,4,,0.25,0.25,0.25,0.125,0.5,0.25,0.25,0.25,0.03,0.5,0.5,1,> 100,0.125,1,MIC (Haemophilus influenzae [18]): 8 µg/mL; remaining at 1 h [28]: 101%; remaining at 1 h [29]: 26.6%; microsomal CLint [30]: 37.3 µL/min/mg; half-life [31]: 37.2 min
CC[C@H]1OC(=O)[C@@](C)(F)C(=O)[C@H](C)[C@@H](O[C@@H]2O[C@H](C)C[C@H](N(C)C)[C@H]2O)[C@](C)(OC)C[C@@H](C)C(=O)[C@H](C)[C@H]2N(CCCOC(=O)Nc3cccs3)C(=O)O[C@]12C,<4,<4,< 0.03,1,,0.25,0.25,0.125,< 0.03,0.5,0.06,0.06,0.25,< 0.03,0.25,0.25,4,> 100,0.06,4,Ratio (Streptococcus pneumoniae [14]): <4; MIC (Haemophilus influenzae [18]): 8 µg/mL
